Experiments:
Ovariectomized rats = assay: Vaginal keratinization test on ovariectomized rats (Example C.2); assay type: in vivo; settings: estradiol undecylate induced keratinization, per os once daily on days 1-3, active dose = 50% of rats show complete suppression
In short: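 Value is the lowest oral dose (mg/kg) at which half of tested rats show complete suppression of estradiol undecylate-induced vaginal keratinization by histology. Ovariectomized rats received 100 μg/100 g estradiol undecylate s.c., then compound or PEG 200 vehicle p.o. daily for three days; sacrifice one day later.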

[1] = test system: metabolism of retinoic acid in human breast cancer cells; assay: Inhibition of retinoic acid (RA) metabolism (Example C.1); assay type: cell-based; settings: MCF-7 human breast cancer cells, 3H-RA as substrate; concentration needed to reduce the amount of metabolites to 50% of the control
In short: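 Test compound (in 1% DMSO) added at several concentrations to MCF-7 cell suspensions fed ³H-RA, after RA induction of metabolism one day earlier. Scintillation counting of the separated polar metabolite fraction; IC50 = concentration giving 50% of control metabolite level.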

| IC50 [1] [nM] | SMILES | LAD (lowest active dose) (Ovariectomized rats) [mg/kg] |
| --- | --- | --- |
| 16.9 | CC(C)C(c1ccc(NC(=O)C(F)=Cc2ccccc2)cc1)n1ccnc1 (racemic) [Compound 461] | 10.00 |
| > 1000 | C/C(=C\c1ccccc1)C(=O)Nc1ccc(C(C)n2ccnc2)cc1 (racemic) [Compound 466] | >20.00 |
| 15.9 | C/C(=C\c1ccccc1)C(=O)Nc1ccc(C(CC(C)C)n2ccnc2)cc1 (racemic) [Compound 474] | >10.00 |
| 1.63 | CCC(CC)C(c1ccc(NC(=O)/C(C)=C/c2ccccc2)cc1)n1ccnc1 (racemic) [Compound 478] | 2.50 |
| 1.78 | C/C=C(\C)C(=O)Nc1ccc(C(C(C)C)n2ccnc2)cc1 (racemic) [Compound 574] | 20.00 |
| 25.7 | C/C(=C\c1cccnc1)C(=O)Nc1ccc(C(C(C)C)n2ccnc2)cc1 (racemic) [Compound 575] | 20.00 |
| 42.3 | C/C(=C\c1cccc(Cl)c1)C(=O)Nc1ccc(C(C(C)C)n2ccnc2)cc1 (racemic) [Compound 577] | 10.00 |
| 7.67 | CC(=Cc1cccc(C(F)(F)F)c1)C(=O)Nc1ccc(C(C(C)C)n2ccnc2)cc1 (racemic) [Compound 578] | >10.00 |
| 12.4 | CC(=Cc1ccc(Cl)cc1)C(=O)Nc1ccc(C(C(C)C)n2ccnc2)cc1 (racemic) [Compound 579] | 10.00 |
| 1.58 | COc1ccc(/C=C(\C)C(=O)Nc2ccc(C(C(C)C)n3ccnc3)cc2)cc1 (racemic) [Compound 582] | >10.00 |
| 2.78 | C/C(=C\c1ccc(F)cc1)C(=O)Nc1ccc(C(C(C)C)n2ccnc2)cc1 (racemic) [Compound 583] | 10.00 |
| 7.21 | C/C(=C\c1ccccc1F)C(=O)Nc1ccc(C(C(C)C)n2ccnc2)cc1 (racemic) [Compound 585] | 10.00 |
| 3.74 | CC(=Cc1cccc(F)c1)C(=O)Nc1ccc(C(C(C)C)n2ccnc2)cc1 (racemic) [Compound 586] | >10.00 |
| 31.6 | CC(=CCCc1ccccc1)C(=O)Nc1ccc(C(C(C)C)n2ccnc2)cc1 (racemic) [Compound 587] | >10.00 |
| 2.75 | C/C(=C\Cc1ccccc1)C(=O)Nc1ccc(C(C(C)C)n2ccnc2)cc1 (racemic) [Compound 589] | 10.00 |
| 2.78 | C/C(=C\c1ccc2ncccc2c1)C(=O)Nc1ccc(C(C(C)C)n2ccnc2)cc1 (racemic) [Compound 590] | >10.00 |
| 40.1 | C/C(=C\c1ccc2ccccc2c1)C(=O)Nc1ccc(C(C(C)C)n2ccnc2)cc1 (racemic) [Compound 591] | >10.00 |
| 4.15 | C/C(=C\c1ccnc2ccccc12)C(=O)Nc1ccc(C(C(C)C)n2ccnc2)cc1 (racemic) [Compound 592] | >10.00 |
| 2.7 | C/C(=C\c1cccc2ccccc12)C(=O)Nc1ccc(C(C(C)C)n2ccnc2)cc1 (racemic) [Compound 593] | >10.00 |
| 4.81 | C/C(=C\c1ccco1)C(=O)Nc1ccc(C(C(C)C)n2ccnc2)cc1 (racemic) [Compound 594] | >10.00 |
| 3.83 | C/C(=C\c1cccs1)C(=O)Nc1ccc(C(C(C)C)n2ccnc2)cc1 (racemic) [Compound 595] | 10.00 |
| 7.92 | C/C(=C\c1ccsc1)C(=O)Nc1ccc(C(C(C)C)n2ccnc2)cc1 (racemic) [Compound 596] | 10.00 |

The remaining lines, values behind:

| SMILES | IC50 [1] [nM] | LAD (lowest active dose) (Ovariectomized rats) [mg/kg] |
| --- | --- | --- |
| CCC(c1ccc(NC(=O)/C(C)=C/c2ccccc2)cc1)n1ccnc1 (racemic) [Compound 460] | 36.3 | >20.00 |
| CCCCC(c1ccc(NC(=O)/C(C)=C/c2ccccc2)cc1)n1ccnc1 (racemic) [Compound 462] | > 1000 | 20.00 |
| C/C(=C\c1ccccc1)C(=O)Nc1ccc(C(C2CCCCC2)n2ccnc2)cc1 (racemic) [Compound 463] | 24.5 | 20.00 |
| CCC/C(=C\c1ccccc1)C(=O)Nc1ccc(C(C(C)C)n2ccnc2)cc1 (racemic) [Compound 464] | 149 | >20.00 |
| CCCC/C(=C\c1ccccc1)C(=O)Nc1ccc(C(C(C)C)n2ccnc2)cc1 (racemic) [Compound 465] | 50.4 | >20.00 |
| CCCC(c1ccc(NC(=O)/C(C)=C/c2ccccc2)cc1)n1ccnc1 (racemic) [Compound 467] | 2.58 | >20.00 |
| O=C(Nc1ccc(C(C2CCCCC2)n2ccnc2)cc1)/C(=C/c1ccccc1)c1ccccc1 (racemic) [Compound 468] | > 100 | 10.00 |
| C/C(=C\c1ccccc1)C(=O)Nc1ccc(C(C2CC2)n2ccnc2)cc1 (racemic) [Compound 469] | > 100 | >10.00 |
| C/C(=C\c1ccccc1)C(=O)Nc1ccc(C(C2CCCC2)n2ccnc2)cc1 (racemic) [Compound 470] | 18.7 | >20.00 |
| CC(C)C(c1ccc(NC(=O)C(=Cc2ccccc2)C2CCCC2)cc1)n1ccnc1 (racemic) [Compound 472] | 95.1 | >20.00 |
| CC(C)C(c1ccc(NC(=O)/C(=C/c2ccccc2)C2CCCCC2)cc1)n1ccnc1 (racemic) [Compound 473] | > 100 | >10.00 |
| C/C(=C\c1ccccc1)C(=O)Nc1ccc(C(C2COCOC2)n2ccnc2)cc1 (racemic) [Compound 477] | > 1000 | >10.00 |
| C/C(=C\c1ccccc1)C(=O)Nc1ccc(C(n2ccnc2)C(C)(C)C)cc1 (racemic) [Compound 481] | 2.83 | 10.00 |
| C/C(=C\c1ccccc1)C(=O)Nc1ccc(C(C(c2ccccc2)c2ccccc2)n2ccnc2)cc1 (racemic) [Compound 485] | > 100 | 5.00 |
| O=C(/C=C/c1ccccc1)Nc1ccc(C(c2ccccc2)n2ccnc2)cc1 (racemic) [Compound 497] | 37.6 | >20.00 |
| CC(C)C(c1ccc(NC(=O)/C=C/c2ccccc2)cc1)n1ccnc1 (racemic) [Compound 502] | 32.9 | 5.00 |
| CC(C)C(c1ccc(NC(=O)C=C(c2ccccc2)c2ccccc2)cc1)n1ccnc1 (racemic) [Compound 511] | 10.5 | >20.00 |
| CC(=CC(=O)Nc1ccc(C(c2ccc(Cl)cc2)n2ccnc2)cc1)c1ccccc1 (racemic) [Compound 512] | 616 | >20.00 |
| CCCCC(=CC(=O)Nc1ccc(C(c2ccc(Cl)cc2)n2ccnc2)cc1)c1ccccc1 (racemic) [Compound 513] | 860 | >20.00 |

Reference: patent publication US7179825B2, “Retinoic acid mimetic anilides” (Janssen Pharmaceutica N.V., priority 1997, dated 2007)
